Assay results taken from ChEMBL document CHEMBL5131500, “High Plasticity of the Amicetin Biosynthetic Pathway in Streptomyces sp. SHP 22-7 Led to the Discovery of Streptcytosine P and Cytosaminomycins F and G and Facilitated the Production of 12F-Plicacetin” (J Nat Prod, 2022).
Converted amounts (≈) assume the structure as drawn.

Tested on: Staphylococcus aureus
Test: Antibacterial activity against Staphylococcus aureus NCTC 8325 assessed as bacterial growth inhibition incubated over night by two-fold serial dilution method
Format: functional
Details: not given

SMILES | MIC [µg/mL]
CC(C)=CC(=O)Nc1ccn([C@H]2CC[C@H](O[C@H]3O[C@H](C)[C@@H](N(C)C)[C@H](O)[C@H]3O)[C@@H](C)O2)c(=O)n1 | > 32
CC[C@H](C)C(=O)Nc1ccn([C@H]2CC[C@H](O)[C@@H](C)O2)c(=O)n1 | > 32
C[C@H]1O[C@H](O[C@H]2CC[C@H](n3ccc(NC(=O)c4ccc(N)c(F)c4)nc3=O)O[C@@H]2C)[C@H](O)[C@@H](O)[C@@H]1N(C)C | > 32
CC(C)=CC(=O)Nc1ccn([C@H]2CC[C@H](O)[C@@H](C)O2)c(=O)n1 | > 32

Tested on: Klebsiella aerogenes
Test: Antibacterial activity against Enterobacter aerogenes ATCC 13048 assessed as bacterial growth inhibition incubated over night by two-fold serial dilution method
Format: functional
Details: not given

SMILES | MIC [µg/mL]
CC(C)=CC(=O)Nc1ccn([C@H]2CC[C@H](O[C@H]3O[C@H](C)[C@@H](N(C)C)[C@H](O)[C@H]3O)[C@@H](C)O2)c(=O)n1 | > 32
CC[C@H](C)C(=O)Nc1ccn([C@H]2CC[C@H](O)[C@@H](C)O2)c(=O)n1 | > 32
C[C@H]1O[C@H](O[C@H]2CC[C@H](n3ccc(NC(=O)c4ccc(N)c(F)c4)nc3=O)O[C@@H]2C)[C@H](O)[C@@H](O)[C@@H]1N(C)C | > 32
CC(C)=CC(=O)Nc1ccn([C@H]2CC[C@H](O)[C@@H](C)O2)c(=O)n1 | > 32

Tested on: Pseudomonas aeruginosa
Test: Antibacterial activity against Pseudomonas aeruginosa ATCC 27853 assessed as bacterial growth inhibition incubated over night by two-fold serial dilution method
Format: functional
Details: not given

SMILES | MIC [µg/mL]
CC(C)=CC(=O)Nc1ccn([C@H]2CC[C@H](O[C@H]3O[C@H](C)[C@@H](N(C)C)[C@H](O)[C@H]3O)[C@@H](C)O2)c(=O)n1 | > 32
CC[C@H](C)C(=O)Nc1ccn([C@H]2CC[C@H](O)[C@@H](C)O2)c(=O)n1 | > 32
C[C@H]1O[C@H](O[C@H]2CC[C@H](n3ccc(NC(=O)c4ccc(N)c(F)c4)nc3=O)O[C@@H]2C)[C@H](O)[C@@H](O)[C@@H]1N(C)C | > 32
CC(C)=CC(=O)Nc1ccn([C@H]2CC[C@H](O)[C@@H](C)O2)c(=O)n1 | > 32

Tested on: Mycobacterium tuberculosis
Test: Antitubercular activity against Mycobacterium tuberculosis H37Rv ATCC 25618 assessed as bacterial growth inhibition incubated for 7 days by resazurin microtiter assay
Format: functional
Details: H37Rv ATCC 25618, 168 h, time 7 day

SMILES | MIC95 [µM]
CC(C)=CC(=O)Nc1ccn([C@H]2CC[C@H](O[C@H]3O[C@H](C)[C@@H](N(C)C)[C@H](O)[C@H]3O)[C@@H](C)O2)c(=O)n1 | 32 (≈ 15.4 µg/mL)

Tested on: Candida albicans
Test: Antifungal activity against Candida albicans Tu01 assessed as fungal growth inhibition incubated for 48 hrs by broth microdilution method
Format: functional
Details: not given

SMILES | MIC [µg/mL]
CC(C)=CC(=O)Nc1ccn([C@H]2CC[C@H](O[C@H]3O[C@H](C)[C@@H](N(C)C)[C@H](O)[C@H]3O)[C@@H](C)O2)c(=O)n1 | > 32
CC[C@H](C)C(=O)Nc1ccn([C@H]2CC[C@H](O)[C@@H](C)O2)c(=O)n1 | > 32
C[C@H]1O[C@H](O[C@H]2CC[C@H](n3ccc(NC(=O)c4ccc(N)c(F)c4)nc3=O)O[C@@H]2C)[C@H](O)[C@@H](O)[C@@H]1N(C)C | > 32
CC(C)=CC(=O)Nc1ccn([C@H]2CC[C@H](O)[C@@H](C)O2)c(=O)n1 | > 32

Tested on: Mycolicibacterium smegmatis
Test: Antibacterial activity against Mycobacterium smegmatis mc2 155 assessed as bacterial growth inhibition incubated over night by two-fold serial dilution method
Format: functional
Details: not given

SMILES | MIC [µg/mL]
CC(C)=CC(=O)Nc1ccn([C@H]2CC[C@H](O[C@H]3O[C@H](C)[C@@H](N(C)C)[C@H](O)[C@H]3O)[C@@H](C)O2)c(=O)n1 | 4 (≈ 8.32 µM)
CC[C@H](C)C(=O)Nc1ccn([C@H]2CC[C@H](O)[C@@H](C)O2)c(=O)n1 | > 32
CC(C)=CC(=O)Nc1ccn([C@H]2CC[C@H](O)[C@@H](C)O2)c(=O)n1 | > 32

Tested on: Enterococcus faecium
Test: Antibacterial activity against Enterococcus faecium BM4147-1 assessed as bacterial growth inhibition incubated over night by two-fold serial dilution method
Format: functional
Details: not given

SMILES | MIC [µg/mL]
CC(C)=CC(=O)Nc1ccn([C@H]2CC[C@H](O[C@H]3O[C@H](C)[C@@H](N(C)C)[C@H](O)[C@H]3O)[C@@H](C)O2)c(=O)n1 | > 32
CC[C@H](C)C(=O)Nc1ccn([C@H]2CC[C@H](O)[C@@H](C)O2)c(=O)n1 | > 32
C[C@H]1O[C@H](O[C@H]2CC[C@H](n3ccc(NC(=O)c4ccc(N)c(F)c4)nc3=O)O[C@@H]2C)[C@H](O)[C@@H](O)[C@@H]1N(C)C | > 32
CC(C)=CC(=O)Nc1ccn([C@H]2CC[C@H](O)[C@@H](C)O2)c(=O)n1 | > 32

Tested on: Staphylococcus aureus
Test: Antibacterial activity against Staphylococcus aureus ATCC 29213 assessed as bacterial growth inhibition incubated over night by two-fold serial dilution method
Format: functional
Details: not given

SMILES | MIC [µg/mL]
CC(C)=CC(=O)Nc1ccn([C@H]2CC[C@H](O[C@H]3O[C@H](C)[C@@H](N(C)C)[C@H](O)[C@H]3O)[C@@H](C)O2)c(=O)n1 | > 32
CC[C@H](C)C(=O)Nc1ccn([C@H]2CC[C@H](O)[C@@H](C)O2)c(=O)n1 | > 32
C[C@H]1O[C@H](O[C@H]2CC[C@H](n3ccc(NC(=O)c4ccc(N)c(F)c4)nc3=O)O[C@@H]2C)[C@H](O)[C@@H](O)[C@@H]1N(C)C | > 32
CC(C)=CC(=O)Nc1ccn([C@H]2CC[C@H](O)[C@@H](C)O2)c(=O)n1 | > 32

Tested on: Escherichia coli
Test: Antibacterial activity against Escherichia coli ATCC 25922 assessed as bacterial growth inhibition incubated over night by two-fold serial dilution method
Format: functional
Details: not given

SMILES | MIC [µg/mL]
CC(C)=CC(=O)Nc1ccn([C@H]2CC[C@H](O[C@H]3O[C@H](C)[C@@H](N(C)C)[C@H](O)[C@H]3O)[C@@H](C)O2)c(=O)n1 | > 32
CC[C@H](C)C(=O)Nc1ccn([C@H]2CC[C@H](O)[C@@H](C)O2)c(=O)n1 | > 32
C[C@H]1O[C@H](O[C@H]2CC[C@H](n3ccc(NC(=O)c4ccc(N)c(F)c4)nc3=O)O[C@@H]2C)[C@H](O)[C@@H](O)[C@@H]1N(C)C | > 32
CC(C)=CC(=O)Nc1ccn([C@H]2CC[C@H](O)[C@@H](C)O2)c(=O)n1 | > 32

Tested on: Acinetobacter baumannii
Test: Antibacterial activity against Acinetobacter baumannii 09987 assessed as bacterial growth inhibition incubated over night by two-fold serial dilution method
Format: functional
Details: not given

SMILES | MIC [µg/mL]
CC(C)=CC(=O)Nc1ccn([C@H]2CC[C@H](O[C@H]3O[C@H](C)[C@@H](N(C)C)[C@H](O)[C@H]3O)[C@@H](C)O2)c(=O)n1 | > 32
CC[C@H](C)C(=O)Nc1ccn([C@H]2CC[C@H](O)[C@@H](C)O2)c(=O)n1 | > 32
C[C@H]1O[C@H](O[C@H]2CC[C@H](n3ccc(NC(=O)c4ccc(N)c(F)c4)nc3=O)O[C@@H]2C)[C@H](O)[C@@H](O)[C@@H]1N(C)C | > 32
CC(C)=CC(=O)Nc1ccn([C@H]2CC[C@H](O)[C@@H](C)O2)c(=O)n1 | > 32

Tested on: Bacillus subtilis
Test: Antibacterial activity against Bacillus subtilis 168 assessed as bacterial growth inhibition incubated over night by two-fold serial dilution method
Format: functional
Details: not given

SMILES | MIC [µg/mL]
CC(C)=CC(=O)Nc1ccn([C@H]2CC[C@H](O[C@H]3O[C@H](C)[C@@H](N(C)C)[C@H](O)[C@H]3O)[C@@H](C)O2)c(=O)n1 | 32 (≈ 66.6 µM)
CC[C@H](C)C(=O)Nc1ccn([C@H]2CC[C@H](O)[C@@H](C)O2)c(=O)n1 | > 32
C[C@H]1O[C@H](O[C@H]2CC[C@H](n3ccc(NC(=O)c4ccc(N)c(F)c4)nc3=O)O[C@@H]2C)[C@H](O)[C@@H](O)[C@@H]1N(C)C | > 32
CC(C)=CC(=O)Nc1ccn([C@H]2CC[C@H](O)[C@@H](C)O2)c(=O)n1 | > 32

Tested on: Klebsiella pneumoniae
Test: Antibacterial activity against Klebsiella pneumoniae ATCC 12657 assessed as bacterial growth inhibition incubated over night by two-fold serial dilution method
Format: functional
Details: not given

SMILES | MIC [µg/mL]
CC(C)=CC(=O)Nc1ccn([C@H]2CC[C@H](O[C@H]3O[C@H](C)[C@@H](N(C)C)[C@H](O)[C@H]3O)[C@@H](C)O2)c(=O)n1 | > 32
CC[C@H](C)C(=O)Nc1ccn([C@H]2CC[C@H](O)[C@@H](C)O2)c(=O)n1 | > 32
C[C@H]1O[C@H](O[C@H]2CC[C@H](n3ccc(NC(=O)c4ccc(N)c(F)c4)nc3=O)O[C@@H]2C)[C@H](O)[C@@H](O)[C@@H]1N(C)C | > 32
CC(C)=CC(=O)Nc1ccn([C@H]2CC[C@H](O)[C@@H](C)O2)c(=O)n1 | > 32

Tested on: Nakaseomyces glabratus
Test: Antifungal activity against Candida glabrata Tu04 assessed as fungal growth inhibition incubated for 48 hrs by broth microdilution method
Format: functional
Details: not given

SMILES | MIC [µg/mL]
CC(C)=CC(=O)Nc1ccn([C@H]2CC[C@H](O[C@H]3O[C@H](C)[C@@H](N(C)C)[C@H](O)[C@H]3O)[C@@H](C)O2)c(=O)n1 | > 32
CC[C@H](C)C(=O)Nc1ccn([C@H]2CC[C@H](O)[C@@H](C)O2)c(=O)n1 | > 32
C[C@H]1O[C@H](O[C@H]2CC[C@H](n3ccc(NC(=O)c4ccc(N)c(F)c4)nc3=O)O[C@@H]2C)[C@H](O)[C@@H](O)[C@@H]1N(C)C | > 32
CC(C)=CC(=O)Nc1ccn([C@H]2CC[C@H](O)[C@@H](C)O2)c(=O)n1 | > 32

Tested on: Escherichia coli
Test: Antimicrobial activity against Escherichia coli MRE600 assessed as inhibition of translation using luciferin as substrate incubated for 2 hrs by chemiluminescence based cell free assay
Format: functional
Details: MRE600, 2 h

SMILES | IC50 [µg/mL]
CC(C)=CC(=O)Nc1ccn([C@H]2CC[C@H](O[C@H]3O[C@H](C)[C@@H](N(C)C)[C@H](O)[C@H]3O)[C@@H](C)O2)c(=O)n1 | 1.6 (≈ 3.33 µM)

Tested on: HeLa
Test: Cytotoxicity against human HeLa cells assessed as reduction in cell viability after 24 hrs by resazurin dye based assay
Format: functional
Details: not given

SMILES | IC50 [µg/mL]
CC(C)=CC(=O)Nc1ccn([C@H]2CC[C@H](O[C@H]3O[C@H](C)[C@@H](N(C)C)[C@H](O)[C@H]3O)[C@@H](C)O2)c(=O)n1 | 2 (≈ 4.16 µM)
CC[C@H](C)C(=O)Nc1ccn([C@H]2CC[C@H](O)[C@@H](C)O2)c(=O)n1 | > 64
C[C@H]1O[C@H](O[C@H]2CC[C@H](n3ccc(NC(=O)c4ccc(N)c(F)c4)nc3=O)O[C@@H]2C)[C@H](O)[C@@H](O)[C@@H]1N(C)C | > 64
CC(C)=CC(=O)Nc1ccn([C@H]2CC[C@H](O)[C@@H](C)O2)c(=O)n1 | > 64
